# The source made the active and inactive calls. The calls are words filed in the database; no cut-off is given here.
# Key:
# [1] = target: Bromodomain-containing protein 2 (Homo sapiens, UniProt P25440); assay: Displacement of biotinylated tetra-acetylated histone H4 from His6-tagged BRD2 (1 to 473 aa) (unknown origin) after 1 hr by TR-FRET assay
# [2] = target: Bromodomain-containing protein 3 (Homo sapiens, UniProt Q15059); assay: Displacement of biotinylated tetra-acetylated histone H4 from His6-tagged BRD3 (1 to 475 aa) (unknown origin) after 1 hr by TR-FRET assay
# [3] = target: Bromodomain-containing protein 4 (Homo sapiens, UniProt O60885); assay: Displacement of biotinylated tetra-acetylated histone H4 from His6-tagged BRD4 (1 to 477 aa) (unknown origin) after 1 hr by TR-FRET assay
# [4] = test system: HepG2; assay: Upregulation of ApoA1 in human HepG2 cells after 16 hrs by luciferase reporter assay relative to control; assay type: functional
# [5] = test system: Mus musculus; assay: Antiinflammatory activity in Balb/c mouse assessed as inhibition of LPS-induced PAI-1 mRNA expression in liver administered orally 2 hrs before LPS challenge measured after 2 hrs; assay type: functional, organism-based
# [6] = test system: Mus musculus; assay: Antiinflammatory activity in Balb/c mouse assessed as inhibition of LPS-induced PAI-1 mRNA expression in liver at 3 mg/kg, po 2 hrs before LPS challenge measured after 2 hrs; assay type: functional, organism-based; design: dose 3 mg/kg
# [7] = test system: HepG2; assay: Upregulation of ApoA1 in human HepG2 cells at 1.25 uM after 16 hrs by luciferase reporter assay relative to control; assay type: functional
# [8] = test system: HepG2; assay: Upregulation of ApoA1 in human HepG2 cells at 10 uM after 16 hrs by luciferase reporter assay relative to control; assay type: functional
# [9] = Solubility of the compound in fasted state simulated intestinal fluid at 125 ug/ml after 16 hrs by HPLC analysis; assay type: ADME; conditions: fasted state simulated intestinal fluid
# Sequence of Bromodomain-containing protein 2 (P25440 whole entry, the tested form may be a part): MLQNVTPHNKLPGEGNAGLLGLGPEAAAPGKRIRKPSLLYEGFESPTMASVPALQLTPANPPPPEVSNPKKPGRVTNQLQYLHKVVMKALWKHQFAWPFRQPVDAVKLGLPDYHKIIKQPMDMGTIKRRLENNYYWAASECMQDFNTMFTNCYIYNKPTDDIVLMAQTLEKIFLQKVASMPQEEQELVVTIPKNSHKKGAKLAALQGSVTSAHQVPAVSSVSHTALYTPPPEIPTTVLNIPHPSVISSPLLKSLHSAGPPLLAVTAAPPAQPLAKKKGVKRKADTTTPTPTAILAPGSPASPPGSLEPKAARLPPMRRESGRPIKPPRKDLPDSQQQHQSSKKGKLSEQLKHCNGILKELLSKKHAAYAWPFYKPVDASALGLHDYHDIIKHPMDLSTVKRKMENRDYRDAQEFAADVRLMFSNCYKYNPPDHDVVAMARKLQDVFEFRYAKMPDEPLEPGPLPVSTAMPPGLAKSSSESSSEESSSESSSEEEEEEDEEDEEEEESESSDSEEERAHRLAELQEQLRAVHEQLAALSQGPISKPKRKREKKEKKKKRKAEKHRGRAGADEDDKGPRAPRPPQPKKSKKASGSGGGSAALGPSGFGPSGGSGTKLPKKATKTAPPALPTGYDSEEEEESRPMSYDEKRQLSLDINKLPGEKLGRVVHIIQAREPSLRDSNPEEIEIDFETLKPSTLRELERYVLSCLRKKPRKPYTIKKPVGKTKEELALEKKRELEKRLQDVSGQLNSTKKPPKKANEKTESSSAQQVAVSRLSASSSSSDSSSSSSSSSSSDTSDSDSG
# Sequence of Bromodomain-containing protein 3 (Q15059 whole entry, the tested form may be a part): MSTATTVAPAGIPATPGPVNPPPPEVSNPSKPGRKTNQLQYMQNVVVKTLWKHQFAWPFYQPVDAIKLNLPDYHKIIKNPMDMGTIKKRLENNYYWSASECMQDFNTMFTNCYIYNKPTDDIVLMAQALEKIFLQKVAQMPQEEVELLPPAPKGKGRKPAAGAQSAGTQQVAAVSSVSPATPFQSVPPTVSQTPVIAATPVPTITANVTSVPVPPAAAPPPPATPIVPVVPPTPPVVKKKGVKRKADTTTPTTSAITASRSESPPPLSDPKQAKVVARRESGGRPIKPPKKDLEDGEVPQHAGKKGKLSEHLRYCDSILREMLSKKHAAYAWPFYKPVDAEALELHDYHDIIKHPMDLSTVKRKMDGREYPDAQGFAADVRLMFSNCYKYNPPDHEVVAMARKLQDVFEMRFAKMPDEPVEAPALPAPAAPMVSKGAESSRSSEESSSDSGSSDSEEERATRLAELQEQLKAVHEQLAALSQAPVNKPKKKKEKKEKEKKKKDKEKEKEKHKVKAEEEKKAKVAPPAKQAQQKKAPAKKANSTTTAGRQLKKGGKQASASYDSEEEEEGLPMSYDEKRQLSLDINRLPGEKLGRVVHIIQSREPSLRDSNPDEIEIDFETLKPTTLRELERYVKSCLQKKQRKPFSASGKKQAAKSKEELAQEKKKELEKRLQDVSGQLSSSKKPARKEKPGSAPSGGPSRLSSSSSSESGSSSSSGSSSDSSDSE
Structure (SMILES),IC50 [1],IC50 [2],IC50 [3],pEC170 [4],inhibition [5],inhibition [6],fold change (FC) [7],fold change (FC) [8],solubility at 16 h [9]
CC(=O)N1c2ccc(-c3ccc(CN4CCCCC4)cc3)cc2[C@@H](Nc2ccccc2)C[C@H]1C,25100 nM,25100 nM,25100 nM,5.9,–,–,–,–,–
CC(=O)N1c2ccc(-c3ccc(C(=O)O)cc3)cc2[C@H](Nc2ccc(C)cc2)C[C@@H]1C,200 nM,158 nM,251 nM,8,–,–,–,–,–
CC(=O)N1c2ccc(-c3ccc(C(=O)O)cc3)cc2[C@H](Nc2ccc(Cl)cc2)C[C@@H]1C,–,–,–,–,Dose-dependent effect,Active,–,–,–
CC(=O)N1c2ccccc2C(Nc2ccccc2)CC1C (mixture of isomers),–,–,–,–,–,–,1.7,2.3,–
CCC(=O)N1c2ccccc2C(Nc2ccccc2)CC1C (mixture of isomers),–,–,–,–,–,–,1.6,1.4,–
CCCC(=O)N1c2ccccc2C(Nc2ccccc2)CC1C (mixture of isomers),–,–,–,–,–,–,–,<=1.1,–
CCCCC(=O)N1c2ccccc2C(Nc2ccccc2)CC1C (mixture of isomers),–,–,–,–,–,–,–,<=1.1,–
CC(=O)N1c2ccc(-c3ccc(C(=O)O)cc3)cc2[C@H](Nc2ccc(Cl)cc2)C[C@@H]1C (racemic),398 nM,398 nM,–,7.8,–,–,–,–,–
CC(=O)N1c2ccc(-c3ccc(C(=O)O)cc3)cc2[C@H](Nc2ccccc2)C[C@@H]1C (racemic),631 nM,398 nM,501 nM,7.3,–,–,–,–,118 µg/mL
CC(=O)N1c2ccccc2[C@@H](Nc2ccc(C)cc2)C[C@H]1C (racemic),–,–,–,–,–,–,1.7,–,–
CC(=O)N1c2ccccc2[C@@H](Nc2ccc(C)cc2)C[C@@H]1C (racemic),–,–,–,–,–,–,1.1,–,–
CC(=O)N1c2ccccc2[C@H](Nc2ccccc2)C[C@@H]1C (racemic),–,–,–,–,–,–,1.7,–,–
CC(=O)N1c2ccc(-c3ccccc3)cc2[C@H](Nc2ccccc2)C[C@@H]1C (racemic),794 nM,501 nM,794 nM,7,–,–,–,–,–
CC(=O)N1c2ccc(-c3ccc(C#N)cc3)cc2[C@H](Nc2ccccc2)C[C@@H]1C (racemic),1000 nM,794 nM,631 nM,7,–,–,–,–,57 µg/mL
COC(=O)c1ccc(-c2ccc3c(c2)[C@H](Nc2ccccc2)C[C@H](C)N3C(C)=O)cc1 (racemic),1260 nM,1000 nM,1260 nM,7.4,–,–,–,–,69 µg/mL
CC(=O)N1c2ccc(-c3ccc(C(F)(F)F)cc3)cc2[C@H](Nc2ccccc2)C[C@@H]1C (racemic),2000 nM,1260 nM,1000 nM,6.2,–,–,–,–,–
COc1ccc(-c2ccc3c(c2)[C@H](Nc2ccccc2)C[C@H](C)N3C(C)=O)cc1 (racemic),1260 nM,631 nM,631 nM,7.2,–,–,–,–,92 µg/mL
CC(=O)N1c2ccc(-c3ccc(CO)cc3)cc2[C@H](Nc2ccccc2)C[C@@H]1C (racemic),794 nM,501 nM,501 nM,7.5,–,–,–,–,73 µg/mL
CC(=O)N1c2ccc(-c3ccc(CN4CCOCC4)cc3)cc2[C@H](Nc2ccccc2)C[C@@H]1C (racemic),794 nM,631 nM,501 nM,7.6,–,–,–,–,107 µg/mL

Structure (SMILES),IC50 [1],IC50 [2],IC50 [3],pEC170 [4],inhibition [5],inhibition [6],fold change (FC) [7],fold change (FC) [8],solubility at 16 h [9]
CC(=O)N1c2ccc(-c3cccc(CN4CCCCC4)c3)cc2[C@H](Nc2ccccc2)C[C@@H]1C (racemic),1260 nM,398 nM,794 nM,7.1,–,–,–,–,99 µg/mL
CC(=O)N1c2ccc(-c3ccc(CN4CCCCC4)cc3)cc2[C@H](Nc2ccccc2)C[C@@H]1C (racemic),–,–,–,7.9,–,–,–,–,111 µg/mL
CC(=O)N1c2ccc(-c3ccc(CN4CCCCC4)cc3)cc2[C@H](NC=O)C[C@@H]1C (racemic),15800 nM,6310 nM,6310 nM,5.3,–,–,–,–,–
CC(=O)N1c2ccc(-c3ccc(CN4CCCCC4)cc3)cc2[C@H](N)C[C@@H]1C (racemic),50100 nM,25100 nM,25100 nM,<5,–,–,–,–,–
COC(=O)c1ccc(-c2ccc3c(c2)[C@H](Nc2ccc(C(C)(C)C)cc2)C[C@H](C)N3C(C)=O)cc1 (racemic),501 nM,501 nM,631 nM,6.9,–,–,–,–,–
CC(=O)N1c2ccc(-c3ccc(C(=O)O)cc3)cc2[C@H](Nc2ccc(S(C)(=O)=O)cc2)C[C@@H]1C (racemic),1000 nM,316 nM,316 nM,5.4,–,–,–,–,–
COC(=O)c1ccc(-c2ccc3c(c2)[C@H](Nc2ccc(S(C)(=O)=O)cc2)C[C@H](C)N3C(C)=O)cc1 (racemic),1260 nM,501 nM,631 nM,6,–,–,–,–,–
CC(=O)N1c2ccc(-c3ccc(C(=O)O)cc3)cc2[C@H](Nc2ccc(C)cc2)C[C@@H]1C (racemic),501 nM,316 nM,631 nM,7.8,–,–,–,–,–
COC(=O)c1ccc(-c2ccc3c(c2)[C@H](Nc2ccc(F)cc2)C[C@H](C)N3C(C)=O)cc1 (racemic),1580 nM,1000 nM,794 nM,7.3,–,–,–,–,–
CC(=O)N1c2ccc(-c3ccc(C#N)cc3)cc2[C@H](Nc2cccc(F)c2)C[C@@H]1C (racemic),1260 nM,794 nM,1000 nM,6.8,–,–,–,–,–
COc1cccc(N[C@@H]2C[C@H](C)N(C(C)=O)c3ccc(-c4ccc(C#N)cc4)cc32)c1 (racemic),1580 nM,794 nM,1000 nM,6.7,–,–,–,–,–
COc1cccc(N[C@@H]2C[C@H](C)N(C(C)=O)c3ccc(-c4ccc(C(=O)O)cc4)cc32)c1 (racemic),631 nM,501 nM,501 nM,7.3,–,–,–,–,–
COc1ccccc1N[C@@H]1C[C@H](C)N(C(C)=O)c2ccc(-c3ccc(C(=O)O)cc3)cc21 (racemic),631 nM,501 nM,631 nM,7.6,–,–,–,–,–
CC(=O)N1c2ccc(-c3ccc(CN4CCCCC4)cc3)cc2[C@H](Nc2ccc(Cl)cc2)C[C@@H]1C (racemic),1000 nM,1260 nM,1000 nM,8,–,–,–,–,–
CC(=O)N1c2ccc(-c3cccc(C(=O)O)c3)cc2[C@H](Nc2ccc(Cl)cc2)C[C@@H]1C (racemic),794 nM,501 nM,794 nM,7.4,–,–,–,–,–
COC(=O)c1cccc(-c2ccc3c(c2)[C@H](Nc2ccc(Cl)cc2)C[C@H](C)N3C(C)=O)c1 (racemic),2000 nM,1000 nM,1000 nM,7.2,–,–,–,–,–
CC(=O)N1c2ccc(-c3ccc(C(N)=O)cc3)cc2[C@H](Nc2ccc(Cl)cc2)C[C@@H]1C (racemic),794 nM,398 nM,501 nM,7.8,–,–,–,–,–
CC(=O)N1c2ccc(-c3ccccc3C)cc2[C@H](Nc2ccc(Cl)cc2)C[C@@H]1C (racemic),3980 nM,2510 nM,3980 nM,5.6,–,–,–,–,–
COc1ccc(-c2ccc3c(c2)[C@H](Nc2ccccc2)CCN3C(C)=O)cc1 (racemic),6310 nM,1580 nM,2510 nM,6.1,–,–,–,–,–

# Reference: ChEMBL document CHEMBL3351476, “The discovery of I-BET726 (GSK1324726A), a potent tetrahydroquinoline ApoA1 up-regulator and selective BET bromodomain inhibitor” (J Med Chem, 2014)
